In the assay the target is T1, recombinant human β secretase (Homo sapiens, UniProt P56817).
T1 construct: made in house; host or cells: COS7 cells transfected with pBACE2; membrane fraction solubilised with octyl-β-glucoside, purified with anti-Flag antibody
Kind of assay: Measurement of inhibitory activity on β secretase (fluorogenic peptide substrate cleavage). In kind it is biochemical. The text has this:
The PCR product was subjected to agarose gel electrophoresis, and about a 700-b DNA fragment was recovered. The fragment was cloned with a Zero Blunt TOPO PCR Cloning Kit (Invitrogen). The resultant plasmid was digested with restriction enzymes APaI (Takara Shuzo) and KpnI (Takara Shuzo) and then subjected to agarose gel electrophoresis to recover about a 250-b DNA fragment. […] These DNA fragments were mixed with an animal cell expression plasmid pcDNA3.1 (−) (Funakoshi) digested with API and KpnI, then ligated by use of Ligation High (Toyobo), and used to transform E. coli JM109 competent cells (Takara Shuzo) to give plasmid pBACE1. […] The PCR product was subjected to agarose gel electrophoresis, and about a 170-b DNA fragment was recovered. The fragment was cloned with a Zero Blunt TOPO PCR Cloning Kit (Invitrogen). The resultant plasmid was digested with restriction enzymes APaI (Takara Shuzo) and BbeI (Takara Shuzo) and then subjected to agarose gel electrophoresis, to recover about a 120-b DNA fragment. pBACE1 was digested with the same enzymes and subjected to agarose gel electrophoresis to recover about a 1.1-kb DNA fragment. Further, pBACE1 was digested with APaI and subjected to agarose gel electrophoresis to recover about a 5.7-kb DNA fragment. These 3 fragments were ligated by use of Ligation High (Toyobo), and used to transform E. coli JM109 competent cells (Takara Shuzo) to give plasmid pBACE2.
15 μg of Human β secretase expression plasmid pBACE2 and 45 μl of Fugene 6 (Roche Diagnostics) were allowed to stand in 1.5 ml D-MEM medium for 15 minutes at room temperature, and this mixture was added to COS7 cells previously grown in D-MEM medium (Nikken Seibutsu Igaku Kenkyusho) containing 10% fetal bovine serum (LifeTech Oriental) in a Tissue culture flask 150 ml (Becton, Dickinson & Co). […] The disrupted solution was centrifuged (500 g, 10 minutes), the supernatant was ultracentrifuged (100,000 g, 45 minutes), and the precipitates were lyzed (4° C., 2.5 hours) with 0.5 ml lyzing buffer (0.01 M Tris-HCl (pH 8), 0.05 M octyl-β-glucoside, 1 mM EDTA, 0.5 mM PMSF) and then ultracentrifuged (100,000 g, 45 minutes). The supernatant was purified with 100 μl anti-Flag antibody (Sigma).

Where [1] appears, read: substrate Nma-Ser-Glu-Val-Asn-Leu-Asp-Ala-Glu-Lys(Dnp)-Arg-Arg-NH2, 0.05 M acetate buffer pH 4.5, 37° C. for 22 hours, fluorescence 325/460.

In patent publication US20050228020A1, “Beta secretase inhibitors” (priority 2000, published 2005) one finds IC50 data, which are given here for nine compounds.

Counter-ions that a name gives are not always drawn.

T1 sequence (P56817 with tags, fused parts or gaps): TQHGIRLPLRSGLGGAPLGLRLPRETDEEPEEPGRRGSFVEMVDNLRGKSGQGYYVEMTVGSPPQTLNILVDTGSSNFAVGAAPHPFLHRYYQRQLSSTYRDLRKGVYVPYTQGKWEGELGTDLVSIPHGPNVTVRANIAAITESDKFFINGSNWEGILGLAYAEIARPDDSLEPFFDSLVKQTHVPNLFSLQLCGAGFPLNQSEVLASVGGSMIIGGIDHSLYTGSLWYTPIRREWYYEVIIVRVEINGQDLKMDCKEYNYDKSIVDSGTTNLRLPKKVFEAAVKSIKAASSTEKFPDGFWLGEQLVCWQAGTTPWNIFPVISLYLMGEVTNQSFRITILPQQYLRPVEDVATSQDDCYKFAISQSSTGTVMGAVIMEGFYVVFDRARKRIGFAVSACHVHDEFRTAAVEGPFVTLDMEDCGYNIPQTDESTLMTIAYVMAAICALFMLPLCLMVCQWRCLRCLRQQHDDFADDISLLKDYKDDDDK

For the compound `CN(C)CC[C@@H]1CCc2cc(OCc3ccc(-c4ccccc4)cc3)ccc2C1` [Compound A, (R)-(+)-6-(4-Biphenylyl)methoxy-2-[2-(N,N-dimethylamino)ethyl]tetralin hydrochloride·1H2O], the IC50 under setting [1] was 2930 nM. On to `CNCCC1CCc2cc(OCc3ccc(-c4ccccc4)cc3)ccc2C1` (stereo not drawn) [Compound C], for which the IC50 under setting [1] worked out at 1290 nM. Same read-out and setting: the same measure for `CCN(C)CCC1CCc2cc(OCc3ccc(-c4ccccc4)cc3)ccc2C1` (stereo not drawn) [D]: 945 nM; for `c1ccc(-c2ccc(COc3ccc4c(c3)CCC(CCN3CCCC3)C4)cc2)cc1` (stereo not drawn) [E]: 1120 nM.

For the compound `c1ccc(-c2ccc(COc3ccc4c(c3)CCC(CCN3CCCCC3)C4)cc2)cc1` (stereo not drawn) [F], the IC50 (pH 4.5) was 349 nM. Consider `c1ccc(-c2ccc(COc3ccc4c(c3)CCC(CCn3ccnc3)C4)cc2)cc1` (stereo not drawn) [G], for which, under setting [1], the IC50 was determined as 856 nM. Same read-out and setting: the same measure for `C[N+](C)([O-])CCC1CCc2cc(OCc3ccc(-c4ccccc4)cc3)ccc2C1` (stereo not drawn) [H]: 616 nM; for `NCCC1CCc2cc(OCc3ccc(-c4ccccc4)cc3)ccc2C1` (stereo not drawn) [I]: 1050 nM; for `Cc1ccc(-c2ccc(COc3ccc4c(c3)CC[C@@H](CCN(C)C)C4)cc2)cc1` [J]: 857 nM.
